In brackets after ≈: the same amount, converted by molar mass. Several values for one entry are separate records, joined by “and”; a condition that tells them apart may be missing. Equal entries are not always repeated. Where two headings read alike, the source gives them in different places. Peptide text beside a SMILES is read from it.
Legend:
[1] = test system: Acinetobacter spp. isolates (n = 104); details: Acinetobacter spp. (n = 104); CLSI breakpoints
Protocol: (§1) Comparator antibiotics were supplied by Micromyx, and stock solutions were prepared on the first day of testing using solvents recommended by CLSI (1). Stock solutions of all compounds were made at 40× the final testing concentration and stored at −80° C. prior to testing. Information regarding compound source, catalog and lot number, testing concentrations and drug diluent for the comparators and test agent are detailed below in Table 3.
(§2) The test organisms evaluated in this study consisted of clinical isolates from the Micromyx Repository and reference isolates from the American Type Culture Collection (ATCC; Manassas, VA). The clinical isolates were obtained from USA hospitals. Upon initial receipt at Micromyx, the organisms were sub-cultured onto an appropriate agar medium. Following incubation, colonies were harvested from these plates and cell suspensions prepared and frozen at −80° C. with a cryoprotectant. Prior to testing, the isolates were streaked from frozen vials onto Trypticase Soy Agar with 5% sheep blood (Becton Dickenson [BD]; Sparks, MD; Lot Nos. 7173618, 7166759, 7208688, 72144895, 7228505 and Remel Lenexa, KS Lot No. 212574). Plates were incubated at 35° C. overnight.
(§3) Mueller Hinton II broth (MHB II; BD; Lot Nos. 6258541 and 7143896) was used for MIC testing of aerobic organisms.
(§4) MIC values were determined using a broth microdilution procedure described by CLSI (1, 3). Automated liquid handlers (Multidrop 384, Labsystems, Helsinki, Finland; Biomek 2000 and Biomek FX, Beckman Coulter, Fullerton CA) were used to conduct serial dilutions and liquid transfers.
(§5) To prepare the drug mother plates, which would provide the serial drug dilutions for the replicate daughter plates, the wells of columns 2-12 of standard 96-well microdilution plates (Costar 3795) were filled with 150 μl of the designated diluent for each row of drug. The test articles and comparator compounds (300 μl at 40× the highest concentration to be tested) were dispensed into the appropriate wells in column 1. The Biomek 2000 was then used to make 2-fold serial dilutions in the mother plates from column 1 through column 11. The wells of Column 12 contained no drug and served as the organism growth control wells for the assay.
(§6) The daughter plates were loaded with 185 μL per well of MHB II using the Multidrop 384. The daughter plates were completed on the Biomek FX instrument which transferred 5 μL of drug solution from each well of a mother plate to the corresponding well of each daughter plate in a single step. A standardized inoculum of each test organism was prepared per CLSI methods (1). The inoculum for each organism was dispensed into sterile reservoirs divided by length (Beckman Coulter), and the Biomek 2000 was used to inoculate the plates. Daughter plates were placed on the Biomek 2000 work surface in reverse orientation so that inoculation took place from low to high drug concentration.
(§7) Plates were stacked 3-4 high, covered with a lid on the top plate, placed in plastic bags, and incubated at 35° C. for 16 to 20 hrs. Following incubation, the microplates were removed from the incubator and viewed from the bottom using a plate viewer. […] The MIC was read and recorded as the lowest concentration of drug that inhibited visible growth of the organism.
(§8) Clinical breakpoints to determine percent resistance within a given organism group were obtained from CLSI (3), with the exception of colistin for K. pneumoniae, Enterobacter spp., and E. coli, which are only available from EUCAST.

[2] = test system: Escherichia coli isolates (n = 101); details: Escherichia coli (n = 101); CLSI breakpoints, colistin EUCAST
Protocol: as §1, §2, §3, §4, §5, §6, §7, §8

[3] = test system: Klebsiella pneumoniae isolates (n = 101); details: Klebsiella pneumoniae (n = 101); CLSI breakpoints, colistin EUCAST
Protocol: as §1, §2, §3, §4, §5, §6, §7, §8

[4] = test system: Pseudomonas aeruginosa isolates (n = 109); details: Pseudomonas aeruginosa (n = 109), CLSI breakpoints
Protocol: as §1, §2, §3, §4, §5, §6, §7, §8

[5] = test system: Enterobacter spp. isolates (Enterobacter aerogenes and E. cloacae, n = 102); assay: organism not typed
Protocol: as §1, §2, §3, §4, §5, §6, §7, §8

[6] = test system: Staphylococcus aureus ATCC 29213 (MSSA; QC); details: S. aureus ATCC 29213; established CLSI QC range; cited from earlier work
[7] = test system: Streptococcus pneumoniae ATCC 49619 (QC); details: S. pneumoniae ATCC 49619; established CLSI QC range; cited from earlier work
[8] = test system: Enterococcus faecalis ATCC 29212 (VSE; QC); details: E. faecalis ATCC 29212; established CLSI QC range; cited from earlier work
[9] = test system: Escherichia coli ATCC 25922 (QC); details: E. coli ATCC 25922; established CLSI QC range; cited from earlier work
[10] = test system: Pseudomonas aeruginosa ATCC 27853 (non-MDR; QC); details: P. aeruginosa ATCC 27853; established CLSI QC range; cited from earlier work
[11] = 1.0 mg/kg, 30 min IV infusion, individual monkeys
Protocol: Animals will be obtained from the Test Facility's colony of adult male cynomolgus monkeys (Macaca fascicularis) of Chinese origin. Animals will be weighed prior to dosing.
Animals will be fasted a minimum of 2 hours prior to procedures requiring the administration of ketamine anesthesia. The diet will also be supplemented with other nutrients by feeding items such as raisins or fresh fruits that are presented to the animal as part of an environmental enrichment program. Offering items known to cause diarrhea will be avoided.
Intravenous administration will be via 30 minute infusion into a temporary percutaneous catheter placed into a saphenous vein. […]
The peptide will be purified from plasma samples from each macaque using a cation exchange-based solid-phase extraction process. Prior to extraction, a known concentration of a mass-adjusted internal standard (IS) will be added to assess recovery and allow for quantitation. […] Compound plasma concentrations will be determined by comparing to and compensating with co-purified IS peak intensity and validated calibrated standard curves.
Toxicokinetic parameters will be calculated using non-compartmental methods as implemented in the Phoenix® WinNonlin® ver. […] Values below the lower limit of quantitation (BLQ) will be assigned a value of zero for the toxicokinetic calculations. […]

Row | Compound | % R (percent of isolates resistant) [1] [%] | % R (percent of isolates resistant) [2] [%] | % R (percent of isolates resistant) [3] [%] | % R (percent of isolates resistant) [4] [%] | % R (percent of isolates resistant) ([4]; listed as meropenem) [%] | MIC50 [5] [µg/mL] | MIC90 [5] [µg/mL] | % R (percent of isolates resistant) ([5]; Enterobacter spp. (n = 102), CLSI breakpoints, colistin EUCAST) [%] | MIC ([5]; read-out: Mode (MIC)) [µg/mL] | MIC QC range (in parentheses under the MIC) [6] | MIC QC range (in parentheses under the MIC) [7] | MIC QC range (in parentheses under the MIC) [8] | MIC QC range (in parentheses under the MIC) [9] | MIC QC range (in parentheses under the MIC) [10] | Dose Normalized Cmax [11]
1 | C[C@@H](O)[C@H]1C(=O)N2C(C(=O)O)=C(S[C@@H]3CN[C@H](C(=O)N(C)C)C3)[C@H](C)[C@H]12 [Meropenem] | 65.4 | 1 | 50.5 | 20.2 | 20 | 0.03 (≈ 0.0782 µM) | 0.12 (≈ 0.313 µM) | 3.9 | 0.03 (≈ 0.0782 µM) | (0.03-0.12) μg/mL | (0.03-0.25) μg/mL | (2-8) μg/mL | (0.008-0.06) μg/mL | (0.12-1) μg/mL | 
2 | C[C@@H](O)[C@H](NC(=O)[C@H](Cc1c[nH]cn1)NC(=O)[C@@H](NC(=O)[C@H](CCCCN)NC(=O)[C@H](CCCCN)NC(=O)[C@@H](NC(=O)[C@H](CCCCN)NC(=O)[C@@H](NC(=O)[C@H](Cc1c[nH]cn1)NC(=O)[C@@H](NC(=O)[C@H](CCCCN)NC(=O)[C@H](CCCCN)NC(=O)[C@@H](NC(=O)[C@H](CCCCN)NC(=O)[C@@H](NC(=O)[C@H](Cc1c[nH]cn1)NC(=O)[C@@H](NC(=O)[C@H](CCCCN)NC(=O)[C@@H](N)CCCCN)[C@@H](C)O)[C@@H](C)O)[C@@H](C)O)[C@@H](C)O)[C@@H](C)O)[C@@H](C)O)[C@@H](C)O)C(=O)N[C@@H](CCCCN)C(=O)O [SEQ ID NO: 13] (H-KKTHTKTKKTHTKTKKTHTK-OH) |  |  |  |  |  |  |  |  |  |  |  |  |  |  | 5000 and 7000 and 6000

From patent US20240115654A1, “INTRAVENOUS ADMINISTRATION OF ENGINEERED ANTIMICROBIAL AMPHIPHILIC PEPTIDES” (priority 2021, published 2024)
